Earlier results on 12 compounds are cited in patent US10202620B2, “Synthesis of olefinic alcohols via enzymatic terminal hydroxylation” (PROVIVI, INC., priority 2014, dated 2019).

A value given as a limit tells only on which side of the number the result lay.

Data set [1] deals with T1, CYP52A4 (Candida maltosa, UniProt P16141).
T1 sequence (P16141 1-538): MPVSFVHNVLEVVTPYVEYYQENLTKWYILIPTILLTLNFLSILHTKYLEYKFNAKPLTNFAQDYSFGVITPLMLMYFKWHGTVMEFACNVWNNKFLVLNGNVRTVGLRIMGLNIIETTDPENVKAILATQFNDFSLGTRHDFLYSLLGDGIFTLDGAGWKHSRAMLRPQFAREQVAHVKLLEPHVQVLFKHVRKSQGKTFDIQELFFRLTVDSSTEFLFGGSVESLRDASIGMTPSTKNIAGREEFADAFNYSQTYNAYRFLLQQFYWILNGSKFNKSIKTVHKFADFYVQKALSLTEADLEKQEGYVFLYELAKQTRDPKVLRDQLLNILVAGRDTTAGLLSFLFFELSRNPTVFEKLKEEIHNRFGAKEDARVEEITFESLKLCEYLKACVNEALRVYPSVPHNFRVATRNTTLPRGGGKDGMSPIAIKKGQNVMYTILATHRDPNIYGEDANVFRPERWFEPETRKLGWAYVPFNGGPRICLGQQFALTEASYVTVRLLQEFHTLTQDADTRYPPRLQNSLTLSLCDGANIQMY
As to conditions: terminal hydroxylation, by alkane/FA chain length.

For data set [2], the system named is CYP52A3. As to conditions: terminal hydroxylation, by alkane/FA chain length.
Data set [3] deals with CYP52A21.
In data set [4] the test system is CYP153A16. As to conditions: terminal hydroxylation, by alkane/FA chain length.
The subject of data set [5] is CYP153A P. sp. Conditions: terminal hydroxylation, by alkane/FA chain length.
In data set [6] the target is T2, AlkB P. putida GPo1 (Ectopseudomonas oleovorans, UniProt P12691).
T2 sequence (P12691 1-401): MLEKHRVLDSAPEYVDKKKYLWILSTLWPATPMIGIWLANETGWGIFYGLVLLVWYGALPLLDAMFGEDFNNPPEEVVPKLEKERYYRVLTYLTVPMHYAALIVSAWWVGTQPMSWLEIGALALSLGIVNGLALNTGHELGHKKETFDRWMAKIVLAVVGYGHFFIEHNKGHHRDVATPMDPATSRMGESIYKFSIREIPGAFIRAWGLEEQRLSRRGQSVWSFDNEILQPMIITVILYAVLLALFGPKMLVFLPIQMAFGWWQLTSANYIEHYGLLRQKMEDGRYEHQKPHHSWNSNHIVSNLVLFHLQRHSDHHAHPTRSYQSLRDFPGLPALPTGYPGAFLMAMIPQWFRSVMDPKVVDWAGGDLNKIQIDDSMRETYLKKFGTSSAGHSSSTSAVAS
As to conditions: terminal hydroxylation, by alkane/FA chain length.

The subject of data set [7] is alkB2 Gordonia sp TF6. Conditions: terminal hydroxylation, by alkane/FA chain length; 100% relative activity obtained with hexane.
For data set [8], the system named is CYP153A6.
The target in data set [9] is T3, LadA (Geobacillus thermodenitrificans, UniProt A4IU28).
T3 sequence (A4IU28 1-440): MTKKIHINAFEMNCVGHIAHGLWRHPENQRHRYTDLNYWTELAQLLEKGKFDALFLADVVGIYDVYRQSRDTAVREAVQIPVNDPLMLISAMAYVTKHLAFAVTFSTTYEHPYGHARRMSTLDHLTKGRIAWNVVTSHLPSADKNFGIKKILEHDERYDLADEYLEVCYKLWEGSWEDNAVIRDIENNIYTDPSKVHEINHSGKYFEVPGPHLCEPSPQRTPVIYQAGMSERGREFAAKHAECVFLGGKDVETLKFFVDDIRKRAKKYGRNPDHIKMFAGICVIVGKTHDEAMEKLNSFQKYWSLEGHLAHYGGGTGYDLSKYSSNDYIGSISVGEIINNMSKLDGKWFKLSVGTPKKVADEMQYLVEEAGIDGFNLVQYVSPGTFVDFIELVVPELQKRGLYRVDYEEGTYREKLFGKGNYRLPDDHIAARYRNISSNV
Conditions: terminal hydroxylation, by alkane/FA chain length.

For the compound `CCCCCCCCCCCCCCCC(=O)O` [C16 FA], the “Relative activity CYP52A4 (Scheller et al., 1996, Arch. Biochem Biophys. 328: 245-254)” value (shortened to “Relative activity CYP52A4”) in [1] is listed as 18. Further, the “Relative activity CYP52A3 (Scheller et al., 1996, Arch. Biochem Biophys. 328: 245-254)” value (“Relative activity CYP52A3” for short) in data set [2] was 35. The “Relative activity CYP52A21 (Kim et al., 2007, Arch. Biochem. Biophys. 464: 213-220)” value in data set [3] is 29.

For the compound `CCCCCCCCCCCCCCCCCC(=O)O` [C18 FA], the “Relative activity CYP52A4” value in data set [1] is 1. Moreover, the “Relative activity CYP52A3” value in data set [2] is recorded as 30.

For `CCCCCCCC` [Strain C8], the “Relative activity CYP153A16 (Scheps et al., 2011, Org. Biomol. Chem. 9: 6727-6733)” value (“Relative activity CYP153A16” below) in [4] was 100. Also, in data set [5], the “Relative activity CYP153A P. sp. (Scheps et al., 2011, Org. Biomol. Chem. 9: 6727-6733)” value is given as 100. The “Relative activity AlkB P. putida GPo1 (Vanbeilen et al., 1994, Enzyme Microb. Technol. 16: 904-911)” value (“Relative activity AlkB P. putida GPo1” for short) in data set [6] is 95. The “Relative activity alkB2 Gordonia sp TF6* (Fujii et al., 2004, Biosci. Biotechnol. Biochem. 68: 2171-2177)” value (shortened to “Relative activity alkB2 Gordonia sp TF6*”) in [7] was 72%. Besides, the “Relative activity CYP153A6 (Funhoff et al., 2006, J. Bacteriol. 188: 5220-5227)” value (“Relative activity CYP153A6” below) in data set [8] is given as 100.

For the compound `CCCCCCCCC` [Strain C9], the “Relative activity CYP153A16” value in data set [4] is reported as 29. Further, in data set [5], the “Relative activity CYP153A P. sp. (Scheps et al., 2011, Org. Biomol. Chem. 9: 6727-6733)” value is recorded as 69. The “Relative activity AlkB P. putida GPo1” value in data set [6] is 100. The “Relative activity alkB2 Gordonia sp TF6*” value in [7] is listed as 63%. In addition, the “Relative activity CYP153A6” value in [8] is recorded as 82.

In the case of `CCCCCCCCCC` [Strain C10], the “Relative activity CYP153A16” value in [4] was 13. Further, in data set [5], the “Relative activity CYP153A P. sp. (Scheps et al., 2011, Org. Biomol. Chem. 9: 6727-6733)” value is 60. Moreover, the “Relative activity AlkB P. putida GPo1” value in data set [6] is on record as 60. In data set [7], the “Relative activity alkB2 Gordonia sp TF6*” value is given as 66%. Also, in [8], the “Relative activity CYP153A6” value was 23.

Consider `CCCCCCCCCCC` [Strain C11], for which, in data set [4], the “Relative activity CYP153A16” value was under 8. Moreover, the “Relative activity CYP153A P. sp. (Scheps et al., 2011, Org. Biomol. Chem. 9: 6727-6733)” value in data set [5] is on record as under 6. The “Relative activity AlkB P. putida GPo1” value in data set [6] is 6. For the same compound, the “Relative activity alkB2 Gordonia sp TF6*” value in [7] is 48%. For the same compound, the “Relative activity CYP153A6” value in data set [8] was 1.

Regarding `CCCCCCCCCCCC` [Strain C12], the “Relative activity alkB2 Gordonia sp TF6*” value in [7] is 34%. The “Relative activity CYP52A4” value in data set [1] is on record as 37. Moreover, in data set [2], the “Relative activity CYP52A3” value was 41.

For `CCCCCCCCCCCCCCC` [Strain C15], in [9], the “Relative activity LadA (Feng et al., 2007, Proc. Natl. Acad. Sci. U.S.A. 104: 5602-5607)” value (from here on “Relative activity LadA”) is given as 83.

As to `CCCCCCCCCCCCCCCC` [Strain C16], the “Relative activity LadA” value in data set [9] was 100. The “Relative activity CYP52A4” value in [1] was 33. Besides, the “Relative activity CYP52A3” value in [2] is on record as 100.

For `CCCCCCCCCCCCCCCCCC` [Strain C18], the “Relative activity LadA” value in [9] is 78. The “Relative activity CYP52A4” value in data set [1] is 20. The “Relative activity CYP52A3” value in data set [2] is 48.

With `CCCCCCCCCCCCCCCCCCCCCC` [Strain C22], in [9], the “Relative activity LadA” value is 74.

As for `CCCCCCCCCCCCCCCCCCCCCCCC` [Strain C24], the “Relative activity LadA” value in data set [9] is listed as 65.
